Here are results for one molecule from patent publication US20180200308A1, “METHODS OF TREATING COLITIS” (priority 2015, published 2018).

Structures are written as SMILES.

The subject of one assay is DSS-induced colitis. The format is in vivo. As to the method:
To further examine the effect of antibiotic and a BSC on ulcerative colitis, the DSS model described supra was used with the addition of arms evaluating vancomycin as the sole antibiotic. In this experiment, three-week-old male C57B1/6 mice, 15 per group (9 in the Naïve control group), were treated according to the Table 2.
Either vancomycin (Groups 5 and 6) or an antibiotic mixture (Groups 7 and 8) was administered to mice in their drinking water prior to receiving treatment to evaluate the effect on BSC efficacy. Mice were dosed by oral gavage with either PBS (Groups 2, 5, and 7) or BSC (Groups 6 and 8) three times per week starting on Day 9 and continuing through the end of the study (Day 38). Group 4 was dosed with a BSC three times per week starting on Day 0. On days 28-32, mice were exposed to 2% DSS in their drinking water (Groups 2-8) and observed until Day 38. Periodic measurements included body weight and clinical scores. On Day 38, animals were euthanized and features of the colon were evaluated including weight, length, and gross pathology. Colon samples were prepared for histopathology and scored by a pathologist blinded to treatment group and the nature of the Test Item.

The next assay relates to TNBS-induced colitis. Briefly: TNBS model of colitis with and without broad-spectrum antibiotic or vancomycin pretreatment (Example 5). The format is in vivo, Balb/c mice. As to the method:
Additional experiments were carried out using the TNBS model (described supra) using a BSC in combination with an antibiotic. In these experiments, three-week-old male Balb/c mice, 24 per group (9 in the naïve control group), were treated according to Table 4.
Either vancomycin (Groups 5 and 6) or an antibiotic mixture (Groups 7 and 8) was administered to mice in their drinking water prior to receiving treatment to evaluate the effect on BSC efficacy (Groups 5-8). Mice were dosed by oral gavage with either PBS (Groups 2, 5, and 7) or BSC (Groups 6 and 8) three times per week starting on Day 7 and continuing through the end of the study (Day 35). Mice in group 4 received BSC three times per week by oral gavage starting on Day 0. On day 28, mice were anesthetized with isoflurane and received intracolonic 2% TNBS (Groups 2-8). Periodic measurements included body weight and clinical scores. On Day 35, animals were euthanized and gross pathology was evaluated. Colon samples were prepared for histopathology and scored by a pathologist blinded to treatment group and the nature of the Test Item.

Where [1] appears, read: vs Negative Control (Group 2), Day 38.

`CN[C@H](CC(C)C)C(=O)N[C@H]1C(=O)N[C@@H](CC(N)=O)C(=O)N[C@H]2C(=O)N[C@H]3C(=O)N[C@H](C(=O)N[C@H](C(=O)O)c4cc(O)cc(O)c4-c4cc3ccc4O)[C@H](O)c3ccc(c(Cl)c3)Oc3cc2cc(c3O[C@@H]2O[C@H](CO)[C@@H](O)[C@H](O)[C@H]2O[C@H]2C[C@](C)(N)[C@H](O)[C@H](C)O2)Oc2ccc(cc2Cl)[C@H]1O` [Vancomycin, vancomycin]: the “colon pathology (gross pathology and histopathology scores)” value in the assay on DSS-induced colitis (compared to naïve mice) was “worsening in colon pathology”. For the same molecule, in the assay on DSS-induced colitis (vs Negative Control), the “protection against DSS-induced disease / pathology” value is listed as “significant protection”. For the same molecule, in the assay on DSS-induced colitis (vs Negative Control (Group 2)), the clinical score entry is listed as “reduced clinical scores”, the “colon pathology (overall)” value was “overall improvement in colon pathology”, the colon weight result was “reduced colon weight” and the “maximal body weight loss / body weight loss (in words)” value is “significantly reduced”. Besides, in the assay on DSS-induced colitis (setting [1]), the colon length entry is “increased colon length”, the gross pathology score result was “improved” and the histopathology score result is “improved”. Besides, the “protection against weight loss” value in the assay on TNBS-induced colitis (antibiotic pretreatment alone) is on record as “no effect”. Moreover, the “dead or euthanized / group size” value in the assay with TNBS-induced colitis (following TNBS induction, Positive Control = anti-IL12) is 2/24. Also, the Mortality with TNBS-induced colitis (following TNBS induction, Positive Control = anti-IL12, Negative Control 33%) stood at 8%. In addition, the histopathology scores result with TNBS-induced colitis (vs Negative Control Group 2, BSC p=0.14) was “not different”. The clinical scores entry in the assay with TNBS-induced colitis (vs Negative Control Group 2, Positive Control = anti-IL12) is reported as “not statistically improved”.
